Measured values published in EP1604976A1 (Advance Holdings Limited, priority 2004, dated 2005).
Converted amounts (≈) assume the structure as drawn. Values belong to the molecule of their own block, whether it stands above or below them.

Experiments:
[1] = stability of product of Formula (I) in aqueous solution / acid medium; assay type: physicochemical
[2] = water solubility of products of Formula (I)
COX-2 = COX-2 (Homo sapiens, UniProt P35354); settings: Famaey 1997; Cullen et al. 1998; cited from earlier work
Chain of COX-2 (P35354 18-604): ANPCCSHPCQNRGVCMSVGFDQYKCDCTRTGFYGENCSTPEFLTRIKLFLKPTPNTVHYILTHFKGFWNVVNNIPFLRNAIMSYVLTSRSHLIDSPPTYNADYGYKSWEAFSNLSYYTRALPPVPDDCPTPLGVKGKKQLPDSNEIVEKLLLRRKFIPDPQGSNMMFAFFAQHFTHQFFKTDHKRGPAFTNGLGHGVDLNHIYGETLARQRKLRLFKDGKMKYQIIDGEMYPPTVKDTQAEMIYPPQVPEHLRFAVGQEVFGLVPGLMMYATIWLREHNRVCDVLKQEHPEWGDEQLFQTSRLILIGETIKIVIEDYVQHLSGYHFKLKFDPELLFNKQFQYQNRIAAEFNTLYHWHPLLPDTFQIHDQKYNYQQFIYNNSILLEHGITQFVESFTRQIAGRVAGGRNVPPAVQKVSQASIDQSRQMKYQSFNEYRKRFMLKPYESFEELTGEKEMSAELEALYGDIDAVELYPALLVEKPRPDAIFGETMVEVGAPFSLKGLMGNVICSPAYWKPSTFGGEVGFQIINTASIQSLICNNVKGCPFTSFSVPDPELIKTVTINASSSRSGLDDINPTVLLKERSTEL

- stability of the aqueous solution ([1]; approximately 3.5 wt.% aqueous solution, room temperature, seventh day): still stable on the seventh day
- solubility [2]: ~35 mg/mL (≈ 90.1 mM)
Compound: CS(=O)(=O)N(c1ccc([N+](=O)[O-])cc1Oc1ccccc1)S(=O)(=O)O [Product I in which X is Na]
- effect of acidification of the solution ([1]; acidification to about pH 2 with HCl): decomposition of the product and precipitation of the theoretical quantity of nimesulide

- stability of the acid form ([1]; especially in an acid medium): rather unstable
Compound: CS(=O)(=O)N(c1ccc([N+](=O)[O-])cc1Oc1ccccc1)S(=O)(=O)O [acid form (X = H)]

Compound: CS(=O)(=O)Nc1ccc([N+](=O)[O-])cc1Oc1ccccc1 [nimesulide]
- COX-2 versus COX-1 inhibition preference (COX-2): inhibit preferentially COX-2 more than COX-1
